Assay results from patent US20260098080A1, “A MODIFIED PROTEIN SCAFFOLD AND USE THEREOF” (EVOLVERITAS BIOTECHNOLÓGIAI KORLÁTOLT FELELOSSÉGU TÁRSASÁG, priority 2022, published 2026).
Like-named read-outs stand apart in the source and are kept apart here. Bridges are numbered along the chain shown (N, C = ends). Where no end group is shown, it is not given here.

Columns and labels:
human MASP-2 = human MASP-2 (Homo sapiens, UniProt O00187); conditions: as disclosed in WO2018127719, read-out: inhibitory binding constant (KI) on human MASP-2, cited from earlier work
rat MASP-2 = rat MASP-2 (Rattus norvegicus, UniProt Q9JJS8); conditions: as disclosed in WO2018127719; cited from earlier work
[1] = molecular target: T1, human MASP-2 catalytic fragment (Homo sapiens, UniProt O00187); assay: Surface plasmon resonance kinetics and affinity on immobilized human MASP-2 catalytic fragment; type: binding
T1 construct: catalytic enzyme fragments containing the three C-terminal domains: CCP1-CCP2-SP; made in house

human MASP-2cf = molecular target: T2, human MASP-2cf (Homo sapiens, UniProt O00187); assay: Equilibrium inhibition constant (KI) on human MASP-2 catalytic fragment, Z-L-Lys-SBzl substrate; type: biochemical
T2 construct: catalytic enzyme fragments containing the three C-terminal domains: CCP1-CCP2-SP; made in house

human MASP-2, sequence (O00187 16-686): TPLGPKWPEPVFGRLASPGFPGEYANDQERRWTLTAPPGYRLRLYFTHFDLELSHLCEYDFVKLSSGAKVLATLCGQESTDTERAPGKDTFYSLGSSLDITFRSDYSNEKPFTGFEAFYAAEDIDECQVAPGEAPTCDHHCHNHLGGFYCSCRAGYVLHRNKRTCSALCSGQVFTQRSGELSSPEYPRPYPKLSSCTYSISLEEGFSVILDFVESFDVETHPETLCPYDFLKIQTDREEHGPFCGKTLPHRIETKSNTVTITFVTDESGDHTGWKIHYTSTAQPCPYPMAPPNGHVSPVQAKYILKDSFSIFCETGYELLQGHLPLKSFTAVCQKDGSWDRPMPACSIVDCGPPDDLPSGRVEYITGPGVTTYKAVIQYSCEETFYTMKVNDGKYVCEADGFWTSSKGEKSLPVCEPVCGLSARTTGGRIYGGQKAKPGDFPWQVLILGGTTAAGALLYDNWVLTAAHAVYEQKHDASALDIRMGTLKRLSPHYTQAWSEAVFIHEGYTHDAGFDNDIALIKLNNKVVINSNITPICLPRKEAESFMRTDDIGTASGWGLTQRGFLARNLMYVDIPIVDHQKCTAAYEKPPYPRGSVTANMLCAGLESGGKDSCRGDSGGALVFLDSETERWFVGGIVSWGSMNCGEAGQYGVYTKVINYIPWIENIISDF
rat MASP-2, sequence (Q9JJS8 20-685): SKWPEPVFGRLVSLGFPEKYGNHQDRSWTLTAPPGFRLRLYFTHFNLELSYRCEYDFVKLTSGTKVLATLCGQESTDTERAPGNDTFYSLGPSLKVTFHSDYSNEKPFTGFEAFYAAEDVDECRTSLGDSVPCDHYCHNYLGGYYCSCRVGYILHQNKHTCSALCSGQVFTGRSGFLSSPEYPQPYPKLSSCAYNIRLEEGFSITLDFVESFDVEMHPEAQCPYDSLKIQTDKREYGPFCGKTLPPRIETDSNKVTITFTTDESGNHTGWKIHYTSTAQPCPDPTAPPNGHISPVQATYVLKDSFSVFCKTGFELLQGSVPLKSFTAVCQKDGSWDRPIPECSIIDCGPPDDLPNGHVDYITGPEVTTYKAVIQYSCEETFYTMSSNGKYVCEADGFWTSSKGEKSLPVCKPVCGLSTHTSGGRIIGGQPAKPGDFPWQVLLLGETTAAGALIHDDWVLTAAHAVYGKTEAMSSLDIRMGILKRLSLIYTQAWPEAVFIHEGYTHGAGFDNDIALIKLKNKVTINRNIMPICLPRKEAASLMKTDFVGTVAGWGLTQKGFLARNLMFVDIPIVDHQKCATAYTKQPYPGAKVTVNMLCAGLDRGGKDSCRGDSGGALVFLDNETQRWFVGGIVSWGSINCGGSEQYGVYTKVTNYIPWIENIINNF

## KPDFCFLEEDPGPCRAVKRRYFYNNQTKQCERFKYGGCLGNMNNFETLEECKNICEDG (disulfide 5-55, 14-38, 30-51) [EVO2]
Human MASP-2; listed as WO2018127719 with SEQ ID NO: 14
  Ki: 7.9 nM
Human MASP-2
  Ki: ~7 nM
Rat MASP-2
  Ki: ~7 nM

## KPDFCFLENDPGLCRAAAVRYFYNNQTKQCERFYYGGCLGNMNNFVTLEECKNICEDG (disulfide 5-55, 14-38, 30-51) [EVO222]
[1]
  Kd: 0.045 nM

## KPDFCFLENDPGPCRAAKRRYFYNNQTKQCERFYYGGCLGNMNNFVTLEECKNICEDG (disulfide 5-55, 14-38, 30-51) [EVO22a]
[1]; Human MASP-2 catalytic fragment, SPR, read-out: KD
  Kd: 0.045 nM

## KPDFCFLENDPGPCRAAAVRYFYNNQTKQCERFYYGGCLGNMNNFVTLEECKNICEDG (disulfide 5-55, 14-38, 30-51) [EVO223]
Human MASP-2cf; 5 nM enzyme, read-out: KI values human MASP-2cf
  Ki: 0.17 ± 0.07 nM

## KPDFCFLENDPGPCRALKRRYFYNNQTKQCERFYYGGCFGNMNNFETLEECKNICEDG (disulfide 5-55, 14-38, 30-51) [EVO25]
Human MASP-2cf
  Ki: 0.17 ± 0.04 nM
